Source: PubChem BioAssay (NCI)
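The compound was tested at five concentrations on cells cultured in 96-well plates, with a 48-hour exposure period. TGI: total growth inhibition.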 Where a SMILES comes first, the peptide text is derived from it. The star is where a group is joined. Boc = CC(C)(C)OC(=O)*

Columns and labels:
Experiment in all cases: inhibition of tumour cell growth, NCI panel, 48 h
786-0 renal = tested on: 786-0 renal
BT-549 breast = tested on: BT-549 breast
HCC-2998 colon = tested on: HCC-2998 colon
MALME-3M melanoma = tested on: MALME-3M melanoma
MDA-MB-231 breast = tested on: MDA-MB-231 breast
NCI-H23 lung = tested on: NCI-H23 lung
NCI/ADR-RES ovarian = tested on: NCI/ADR-RES ovarian
SK-MEL-2 melanoma = tested on: SK-MEL-2 melanoma
SR leukemia = tested on: SR leukemia
UACC-257 melanoma = tested on: UACC-257 melanoma

Row | Compound | TGI (786-0 renal) | TGI (BT-549 breast) | TGI (HCC-2998 colon) | TGI (MALME-3M melanoma) | TGI (MDA-MB-231 breast) | TGI (NCI-H23 lung) | TGI (NCI/ADR-RES ovarian) | TGI (SK-MEL-2 melanoma) | TGI (SR leukemia) | TGI (UACC-257 melanoma)
1 | O=C1C=CC(=O)c2c(O)c(N3CCOCC3)c(Cl)c(O)c21 | 0.84 µM | 0.329 µM | 3.16 µM | 0.442 µM | 0.612 µM | 0.589 µM | 1.43 µM | 0.765 µM | > 7.34 µM | 0.911 µM
2 | COC(=O)C1C(=O)CC(C)(O)C(C(=O)OC)C1c1ccc(N(C)C)cc1 (stereo not drawn) | 24.7 µM | > 100 µM | > 100 µM | > 100 µM | > 100 µM | > 100 µM | > 100 µM | > 100 µM | > 100 µM | > 100 µM
3 | CSc1nnc(SCc2nn3c(=O)cc(C)nc3s2)s1 | > 100 µM | > 100 µM | > 100 µM | > 100 µM | > 100 µM | > 100 µM | > 100 µM | > 100 µM | > 100 µM | > 100 µM
4 | Cc1c(OCc2cccc3ccccc23)ccc2c(=O)cc(SCCN3CCOCC3)oc12 | > 100 µM | > 100 µM | > 100 µM |  | > 100 µM | > 100 µM | > 100 µM | > 100 µM | > 100 µM | > 100 µM
5 | COC(=O)C(Cc1c[nH]c2ccccc12)NC(=O)C(Cc1c[nH]c2ccccc12)NC(=O)C(Cc1c[nH]c2ccccc12)NC(=O)C(Cc1c[nH]c2ccccc12)NC(=O)C(Cc1c[nH]c2ccccc12)NC(=O)C(Cc1c[nH]c2ccccc12)NC(=O)C(Cc1c[nH]c2ccccc12)NC(=O)OC(C)(C)C (stereo not drawn) (Boc-WWWWWWW-OMe; configuration not given here) | > 100 µM | > 100 µM | > 100 µM | > 100 µM | > 100 µM | > 100 µM |  | 87.9 µM | > 100 µM | > 100 µM
6 | Cc1nc2ccc(Br)cc2c(=O)n1-c1ccc(N)cc1 | > 100 µM | > 100 µM | > 100 µM | > 100 µM | > 100 µM |  | > 100 µM | > 100 µM | > 100 µM | > 100 µM
7 | Oc1cccc2c(Br)ccnc12 | > 100 µM | > 45.7 µM | 31.7 µM | 21.2 µM | 16.3 µM | 17.1 µM | 12.7 µM | 27.1 µM | 4.31 µM | 16.1 µM
8 | O=C1C=C(N2CCN(c3ncccn3)CC2)C(=O)c2c(O)ccc(O)c21 | > 100 µM | > 100 µM | > 100 µM | 46.6 µM | > 100 µM | > 100 µM | > 100 µM |  | > 100 µM | > 100 µM
9 | O=C1CCCCC/C1=C\c1cccc(F)c1 | > 100 µM | > 100 µM | > 100 µM | > 100 µM | > 100 µM |  | > 100 µM | > 100 µM | 61.2 µM | > 100 µM
10 | COc1ccc(/C=C2\CCCc3ccccc3C2=O)cc1 | 12.2 µM | 17.3 µM | 28.2 µM | > 100 µM | 42.1 µM | 7.76 µM | > 100 µM |  | > 32 µM | 37.8 µM
11 | O=[N+]([O-])c1ccc(N2N=C(c3c(O)ccc4ccccc34)CC2c2ccc(Cl)cc2)c([N+](=O)[O-])c1 (stereo not drawn) | > 100 µM | > 100 µM | > 100 µM | 63 µM | 56.2 µM | > 100 µM | 55.6 µM | 44.2 µM | 31.4 µM | > 100 µM
12 | O=C1C=CC2(O[C@H](C3CCCCC3)[C@@H](C3CCCCC3)O2)C(SC(=O)c2ccccc2)C1 (stereo partly drawn) | 5.09 µM | 8.28 µM | 5.52 µM | 10.5 µM | 5.11 µM | 8.93 µM | 13.1 µM | 12.8 µM | 2.36 µM | 16.2 µM
13 | Cc1cc(N2CCCCC2)nc2ccc(Cc3ccc4nc(N5CCCCC5)cc(C)c4c3)cc12 | > 100 µM | > 100 µM | > 100 µM | > 100 µM | > 100 µM | > 100 µM | > 100 µM | > 100 µM | > 100 µM | > 100 µM
14 | CC(C)(C)c1cc(OCc2nnc3sc(Cc4ccccc4)nn23)c(Cl)cc1OCc1nnc2sc(Cc3ccccc3)nn12 | 46.7 µM | 96.9 µM | 20.9 µM | > 100 µM | 39 µM | > 100 µM | > 100 µM | > 100 µM | 70.6 µM | 63.5 µM
15 | COc1ccc(-n2c(N)c(C#N)c(C#N)c2-c2ccco2)cc1 | > 100 µM | > 100 µM | > 100 µM | > 100 µM | > 100 µM | > 100 µM | > 100 µM | > 100 µM | > 100 µM | > 100 µM
16 | N/N=C(/N)SCCCCCCCCCCS/C(N)=N/N | > 100 µM | 68.7 µM | 59.6 µM | 49.4 µM | 85.2 µM | > 100 µM | 58.2 µM | 52.8 µM | 27.4 µM | > 100 µM
17 | NC1CCCCC1NCCNC1CCCCC1N (stereo not drawn) | > 100 µM | > 100 µM | 81.7 µM | > 100 µM | > 100 µM | 96.8 µM | > 100 µM | > 100 µM | > 100 µM | > 100 µM
18 | O=c1[nH]n(CCc2ccccc2CCl)c2ccc([N+](=O)[O-])cc12 | > 100 µM | > 100 µM | > 100 µM | > 100 µM | > 100 µM | > 100 µM | > 100 µM | > 100 µM | > 100 µM | > 100 µM
19 | Cc1ccc(N=C/C=C(\Nc2ccc(C)cc2)c2ccc3ccccc3c2)cc1 | 3.38 µM | 13.6 µM |  | 14 µM | 2.12 µM | 3.9 µM | 2.16 µM | 11.2 µM | 1.44 µM | 16.6 µM
20 | CC(OP(=O)(O)O)C(N)C(=O)O (stereo not drawn) | > 100 µM | > 100 µM | > 100 µM | > 100 µM | > 100 µM | > 100 µM | > 100 µM | > 100 µM | > 100 µM | > 100 µM
21 | Cc1ccc(S(=O)(=O)OCCC2CN(C(=O)OCc3ccccc3)C(C)(C)O2)cc1 (stereo not drawn) | > 100 µM | 5.97 µM | 72.7 µM | 43.3 µM | > 100 µM | 13.5 µM | 15.7 µM | 94.5 µM | > 100 µM | > 100 µM
